The record followed here is patent US20140171358A1, “ANTIMICROBIAL COMPOSITIONS COMPRISING DGLA AND NEOMYCIN SULFATE AND METHODS OF USE THEREOF” (Dignity Sciences Limited, priority 2012, published 2014).

The assay deals with P. acnes. Briefly: agar dilution method: growth index and MIC on P. acnes (single compounds and combinations). The following applies: for MIC: Cutibacterium acnes; for growth of P. Acnes with the combination compared with 15-OHEPA used alone: in combination with 15-OHEPA; for growth of P. Acnes with the combination compared with DGLA used alone: in combination with DGLA; for growth of P. Acnes with the combination compared with 15-HETrE used alone: in combination with 15-HETrE. Type of assay: cell-based. As to the method:
Several compounds including fatty acids such as DGLA, 15-OHEPA, and 15-HETrE were tested to determine their capacity to inhibit the growth of P. acnes. In an exemplary method, an agar dilution method was used to determine the minimum inhibitory concentration (MIC) of each tested compound. Briefly, the agar dilution method involved preparing a series of concentrations of each compound (e.g., nicotinamide, benzoyl peroxide, adapalene, metronidazole, DGLA, 15-OHEPA, and 15-HETrE) in a Reinforced Clostridial Agar (RCA) media that facilitates growth of P. acnes under anaerobic conditions. An inoculum of P. acnes was prepared by incubation of P. acnes for approximately seven days at 35-37° C. to achieve a ≧1.0 OD600 inoculum of P. acnes in RCM broth. A portion of this inoculum was then added to the surface of each plate as a 10 μL spot and incubated at 35-37° C. for 72 hours or more. Growth of P. acnes was then observed and compared to control plates in which no compound has been added, and positive inhibition plates prepared with erythromycin. […] The growth of P. acnes in the presence of nicotinamide, benzoyl peroxide, adapalene, metronidazole, DGLA, 15-OHEPA, and 15-HETrE was determined with varying concentrations of the compound (see, Table 2). Next, the MIC was determined as the concentration at which a marked reduction (+) occurs in the appearance of growth on the test plate (as per Clinical and Laboratory Standards Institute M11-A7). The compounds tested singly in Example 1 were tested in combination with one another to determine the capacity of the combination to inhibit the growth of P. acnes. In an exemplary method, the MIC was determined for each of the combination as described in Example 1. Briefly, test combinations included DGLA with nicotinamide, benzoyl peroxide, adapalene, or metronidazole; 15-HETrE with nicotinamide, benzoyl peroxide, adapalene, or metronidazole; and 15-OHEPA with nicotinamide, benzoyl peroxide, adapalene, or metronidazole. The tables below show the growth of P. acnes in the presence of 0.4 or 1.0 mg/mL DGLA with varying concentrations of nicotinamide, benzoyl peroxide, adapalene, or metronidazole (Table 3); the growth of P. acnes in the presence of 0.01 or 0.05 mg/mL 15-HETrE with varying concentrations of nicotinamide, benzoyl peroxide, adapalene, or metronidazole (Table 5); and the growth of P. acnes in the presence of 0.5 or 0.1 mg/mL 15-OHEPA with varying concentrations of nicotinamide, benzoyl peroxide, adapalene, or metronidazole (Table 7).
Background: Agar dilution tests growth on a series of plates holding different concentrations.

Where [1] appears, read: read-out: MIC (mg/mL) with 0.01 mg/mL 15-HETrE spike.
[2] abbreviates: read-out: MIC (mg/mL) with 0.05 mg/mL 15-OHEPA spike.
Setting [3] is: with 0.05 mg/mL 15-HETrE (inhibitory concentration), read-out: MIC (mg/mL) with 0.05 mg/mL 15-HETrE spike.
[4] abbreviates: with 0.1 mg/mL 15-OHEPA (inhibitory concentration), read-out: MIC (mg/mL) with 0.1 mg/mL 15-OHEPA spike.
The mark [5] stands for this setting: with 0.4 mg/mL dGLA (Sigma), read-out: MIC (mg/mL) with 0.4 mg/mL dGLA spike.
Where [6] appears, read: with 1.0 mg/mL dGLA (Cayman), read-out: MIC (mg/mL) with 1.0 mg/mL dGLA spike.

Like-named read-outs stand apart in the source and are kept apart here.

For `COc1ccc(-c2ccc3cc(C(=O)O)ccc3c2)cc1C12CC3CC(CC(C3)C1)C2` [Adapalene], the “growth of P. Acnes with the combination compared with 15-OHEPA used alone” value was “did not reduce the growth of P. Acnes below that of 15 OHEPA used alone” and the “growth of P. Acnes with the combination compared with DGLA used alone” value was “did not reduce the growth of P. Acnes below that of DGLA used alone”. Moreover, the MIC under setting [1] fell in the range of 0.6 to 0.7 mg/mL. Besides, under setting [2], the MIC was above 0.8 mg/mL. Under setting [3], the MIC is below 0.2 mg/mL. Besides, under setting [4], the MIC is below 0.2 mg/mL. The MIC under setting [5] is above 0.6 mg/mL. Also, the MIC under setting [6] was above 0.6 mg/mL.
Regarding `O=C(OOC(=O)c1ccccc1)c1ccccc1` [Benzoyl Peroxide], the “growth of P. Acnes with the combination compared with 15-HETrE used alone” value is “did not reduce the growth of P. Acnes below that of 15-HETrE used alone”. The MIC (compound alone, read-out: MIC (mg/mL) as per P-11-0007 or P-11-0008 Addendum A) lay within 0.6 to 0.8 mg/mL. Besides, the MIC under setting [1] was in the range of 0.6 to 0.8 mg/mL. Under setting [2], the MIC lay within 0.4 to 0.6 mg/mL. Besides, the MIC under setting [3] was below 0.2 mg/mL. Moreover, the MIC under setting [4] is below 0.2 mg/mL. The MIC under setting [5] was 0.2 to 0.4 mg/mL. Moreover, the MIC under setting [6] lay in the range of 0.2 to 0.4 mg/mL.
As for `Cc1ncc([N+](=O)[O-])n1CCO` [Metronidazole], the “growth of P. Acnes with the combination compared with 15-HETrE used alone” value is “did not reduce the growth of P. Acnes below that of 15-HETrE used alone”, the “growth of P. Acnes with the combination compared with 15-OHEPA used alone” value was “did not reduce the growth of P. Acnes below that of 15 OHEPA used alone” and the “growth of P. Acnes with the combination compared with DGLA used alone” value is listed as “did not reduce the growth of P. Acnes below that of DGLA used alone”. Also, the MIC under setting [1] was above 1 mg/mL. In addition, the MIC under setting [2] is above 1 mg/mL. The MIC under setting [3] is below 0.2 mg/mL. Moreover, the MIC under setting [4] was below 0.2 mg/mL. Further, the MIC under setting [5] was above 1 mg/mL. Also, under setting [6], the MIC is above 1 mg/mL.
On to `NC(=O)c1cccnc1` [Nicotinamide], for which the “growth of P. Acnes with the combination compared with 15-HETrE used alone” value is given as “did not reduce the growth of P. Acnes below that of 15-HETrE used alone”, the “growth of P. Acnes with the combination compared with 15-OHEPA used alone” value is given as “did not reduce the growth of P. Acnes below that of 15 OHEPA used alone” and the “growth of P. Acnes with the combination compared with DGLA used alone” value is reported as “did not reduce the growth of P. Acnes below that of DGLA used alone”. In addition, the MIC under setting [1] is 10 to 15 mg/mL. Further, the MIC under setting [2] fell in the range of 10 to 15 mg/mL. Also, under setting [3], the MIC is below 1 mg/mL. Moreover, the MIC under setting [4] was below 1 mg/mL. Moreover, under setting [5], the MIC lay in the range of 10 to 15 mg/mL. Also, under setting [6], the MIC lay in the range of 10 to 15 mg/mL.
